# Target: human GlyT1c transporter (Homo sapiens (Human), UniProt P48067)
# Test: Radioligand binding assays using recombinant CHO cell membranes expressing human GlyT1
# Conditions: not given
# Sequence of human GlyT1c transporter (P48067 whole entry): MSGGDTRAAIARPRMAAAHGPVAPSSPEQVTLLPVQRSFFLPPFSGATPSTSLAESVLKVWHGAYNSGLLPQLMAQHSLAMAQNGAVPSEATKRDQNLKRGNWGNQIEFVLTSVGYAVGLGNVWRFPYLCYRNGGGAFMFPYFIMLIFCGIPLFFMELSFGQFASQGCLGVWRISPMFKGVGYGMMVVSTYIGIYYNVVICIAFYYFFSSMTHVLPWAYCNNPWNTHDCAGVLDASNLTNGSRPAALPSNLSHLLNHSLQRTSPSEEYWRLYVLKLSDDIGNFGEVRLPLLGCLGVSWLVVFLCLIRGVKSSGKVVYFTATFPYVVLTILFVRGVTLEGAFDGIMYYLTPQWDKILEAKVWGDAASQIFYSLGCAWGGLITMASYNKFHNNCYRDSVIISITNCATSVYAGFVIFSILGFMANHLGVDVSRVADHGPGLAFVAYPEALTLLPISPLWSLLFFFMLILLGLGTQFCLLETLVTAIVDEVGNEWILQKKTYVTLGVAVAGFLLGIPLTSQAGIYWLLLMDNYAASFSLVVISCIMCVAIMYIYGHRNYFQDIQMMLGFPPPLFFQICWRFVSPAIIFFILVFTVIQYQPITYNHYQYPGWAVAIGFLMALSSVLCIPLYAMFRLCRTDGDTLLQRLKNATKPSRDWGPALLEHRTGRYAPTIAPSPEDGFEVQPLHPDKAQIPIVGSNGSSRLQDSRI
row,Ki [nM],Compound
1,≤ 1000,"Cn1cnc(S(=O)(=O)N2C[C@@H](Nc3cc(C(F)(F)F)ncn3)[C@H](C3CCCO3)C2)c1 (relative stereo) [Example 853, N-[Trans-1-[(1-methyl-1H-imidazol-4-yl)sulfonyl]-4-(tetrahydrofuran-2-yl)pyrrolidin-3-yl]-6-(trifluoromethyl)pyrimidin-4-amine]"
2,≤ 10000,"Cn1cnc(S(=O)(=O)N2C[C@@H](Nc3cccc(F)n3)[C@H](c3ccc(F)cc3)C2)c1 (relative stereo) [Example 238, 6-fluoro-N-{trans-4-(4-fluorophenyl)-1-[(1-methyl-1H-imidazol-4-yl)sulfonyl]pyrrolidin-3-yl}pyridin-2-amine]"

# Same assay, conditions: radioligand binding, human GlyT1c transporter-expressing CHO cell membranes
row,Compound,Ki [nM]
1,"Cc1cc(S(=O)(=O)N2CC(Nc3ccc(F)c(F)c3)C(c3ccccc3)C2)c(C)o1 (stereo not drawn) [Example 488, N-(3,4-difluorophenyl)-1-[(2,5-dimethylfuran-3-yl)sulfonyl]-4-phenylpyrrolidin-3-amine]",≤ 10000
2,"Cn1cnc(S(=O)(=O)N2C[C@H](Nc3cc(OCC(F)(F)F)c(Cl)cn3)[C@@H](c3ccccc3)C2)c1 [Example 808, 5-chloro-N-{(3R,4S)-1-[(1-methyl-1H-imidazol-4-yl)sulfonyl]-4-phenylpyrrolidin-3-yl}-4-(2,2,2-trifluoroethoxy)pyridin-2-amine]",≤ 10
3,"Cn1cnc(S(=O)(=O)N2C[C@H](NC(=O)CCC(C)(F)F)[C@@H](c3ccc(F)cc3)C2)c1 [Example 754, 4,4-difluoro-N-{(3R,4S)-4-(4-fluorophenyl)-1-[(1-methyl-1H-imidazol-4-yl)sulfonyl]pyrrolidin-3-yl}pentanamide]",≤ 10000
4,"Cn1nccc1S(=O)(=O)N1CC(Nc2ccc(F)c(F)c2)C(c2ccccc2)C1 (stereo not drawn) [Example 516, N-(3,4-difluorophenyl)-1-[(1-methyl-1H-pyrazol-5-yl)sulfonyl]-4-phenylpyrrolidin-3-amine]",≤ 10000
5,"Cn1cnc(S(=O)(=O)N2C[C@H](NCc3ccc(C(F)(F)F)cc3)[C@@H](c3ccccc3)C2)c1 [Example 398, (3R,4S)-1-[(1-methyl-1H-imidazol-4-yl)sulfonyl]-4-phenyl-N-[4-(trifluoromethyl)benzyl]pyrrolidin-3-amine]",≤ 10
6,"CCCOc1cc(N[C@H]2CN(S(=O)(=O)c3cn(C)cn3)C[C@@H]2c2ccccc2)ncn1 [Example 622, N-{(3R,4S)-1-[(1-methyl-1H-imidazol-4-yl)sulfonyl]-4-phenylpyrrolidin-3-yl}-6-propoxypyrimidin-4-amine]",≤ 100
7,"Cn1cnc(S(=O)(=O)N2C[C@@H](c3ccccc3)[C@](C)(NCc3ccc(C(F)(F)F)cc3)C2)c1 (relative stereo) [Example 355, Trans-3-methyl-1-[(1-methyl-1H-imidazol-4-yl)sulfonyl]-4-phenyl-N-[4-(trifluoromethyl)benzyl]pyrrolidin-3-amine]",≤ 1000
8,"CCCc1ccc(CN[C@H]2CN(S(=O)(=O)c3cn(C)cn3)C[C@@H]2c2ccccc2)o1 [Example 428, (3R,4S)-1-[(1-methyl-1H-imidazol-4-yl)sulfonyl]-4-phenyl-N-[(5-propylfuran-2-yl)methyl]pyrrolidin-3-amine]",≤ 100
9,"Cc1cccc2ncc(CN[C@H]3CN(S(=O)(=O)c4cn(C)cn4)C[C@@H]3c3ccccc3)n12 [Example 563, (3R,4S)-1-[(1-methyl-1H-imidazol-4-yl)sulfonyl]-N-[(5-methylimidazo[1,2-a]pyridin-3-yl)methyl]-4-phenylpyrrolidin-3-amine]",≤ 10000
10,"Cc1ccc(CO[C@H]2CN(S(=O)(=O)c3cn(C)cn3)C[C@@H]2c2ccc(F)cc2)cc1 [Example 731, 4-({(3S,4R)-3-(4-fluorophenyl)-4-[(4-methylbenzyl)oxy]pyrrolidin-1-yl}sulfonyl)-1-methyl-1H-imidazole]",≤ 100
11,"CCCCNC(=O)[C@@H]1CN(S(=O)(=O)c2cn(C)cn2)C[C@H]1c1ccc(F)cc1 [Example 581, (3S,4R)—N-butyl-4-(4-fluorophenyl)-1-[(1-methyl-1H-imidazol-4-yl)sulfonyl]pyrrolidine-3-carboxamide]",≤ 100
12,"Cn1cnc(S(=O)(=O)N2C[C@@H]([C@@H]3CCCOC3)[C@H](Nc3cccc(OCC(F)(F)F)c3)C2)c1 (mixture of isomers) [Example 785, trans-1-[(1-methyl-1H-imidazol-4-yl)sulfonyl]-4-[(3S)-tetrahydro-2H-pyran-3-yl]-N-[3-(2,2,2-trifluoroethoxy)phenyl]pyrrolidin-3-amine]",≤ 100
13,"Cn1cnc(S(=O)(=O)N2C[C@H](Nc3ccnc(N4CCOCC4)n3)[C@@H](c3ccccc3)C2)c1 [Example 420, N-{(3R,4S)-1-[(1-methyl-1H-imidazol-4-yl)sulfonyl]-4-phenylpyrrolidin-3-yl}-2-(morpholin-4-yl)pyrimidin-4-amine]",≤ 10000
14,"Cc1cc(S(=O)(=O)N2CC(Nc3ccc(F)c(F)c3)C(c3ccccc3)C2)n(C)n1 (stereo not drawn) [Example 482, N-(3,4-difluorophenyl)-1-[(1,3-dimethyl-1H-pyrazol-5-yl)sulfonyl]-4-phenylpyrrolidin-3-amine]",≤ 10000
15,"Cn1cnc(S(=O)(=O)N2C[C@@H](NC(=O)c3ccc(C(F)(F)F)cc3)[C@@](O)(c3ccccc3)C2)c1 (relative stereo) [Example 538, N-{Trans-4-hydroxy-1-[(1-methyl-1H-imidazol-4-yl)sulfonyl]-4-phenylpyrrolidin-3-yl}-4-(trifluoromethyl)benzamide]",≤ 10000
16,"Cn1cnc(S(=O)(=O)N2CC(c3ccccc3)N(Cc3cccc(Cl)c3)C2=O)c1 (stereo not drawn) [Example 343, 3-(3-chlorobenzyl)-1-[(1-methyl-1H-imidazol-4-yl)sulfonyl]-4-phenylimidazolidin-2-one]",≤ 10000

row,Compound,Ki [nM]
1,"CCCCCCN[C@H]1CN(S(=O)(=O)c2cn(C)cn2)C[C@@H]1c1ccccc1 [Example 548, (3R,4S)—N-hexyl-1-[(1-methyl-1H-imidazol-4-yl)sulfonyl]-4-phenylpyrrolidin-3-amine]",≤ 10
2,"Cn1cnc(S(=O)(=O)N2C[C@H](NCc3cccc4cncn34)[C@@H](c3ccccc3)C2)c1 [Example 560, (3R,4S)—N-(imidazo[1,5-a]pyridin-5-ylmethyl)-1-[(1-methyl-1H-imidazol-4-yl)sulfonyl]-4-phenylpyrrolidin-3-amine]",≥ 10000
3,"Cn1cnc(S(=O)(=O)N2C[C@H](Nc3ccc(F)c(Cl)c3)[C@@H](c3ccc(F)cc3)C2)c1 [Example 352, (3R,4S)—N-(3-chloro-4-fluorophenyl)-4-(4-fluorophenyl)-1-[(1-methyl-1H-imidazol-4-yl)sulfonyl]pyrrolidin-3-amine]",≤ 10
4,"Cn1cnc(S(=O)(=O)N2C[C@H](Nc3ccc(Cl)c(C(F)(F)F)c3)[C@@H](c3ccc(F)cc3)C2)c1 [Example 540, (3R,4S)—N-[4-chloro-3-(trifluoromethyl)phenyl]-4-(4-fluorophenyl)-1-[(1-methyl-1H-imidazol-4-yl)sulfonyl]pyrrolidin-3-amine]",≤ 100
5,"Cn1cnc(S(=O)(=O)N2C[C@H](NCCCC3CC3)[C@@H](c3ccccc3)C2)c1 [Example 573, (3R,4S)—N-(3-cyclopropylpropyl)-1-[(1-methyl-1H-imidazol-4-yl)sulfonyl]-4-phenylpyrrolidin-3-amine]",≤ 100
6,"CC1(C)C(=O)Nc2ccc(S(=O)(=O)N3CC(Nc4ccc(F)c(F)c4)C(c4ccccc4)C3)cc21 (stereo not drawn) [Example 478, 5-({3-[(3,4-difluorophenyl)amino]-4-phenylpyrrolidin-1-yl}sulfonyl)-3,3-dimethyl-1,3-dihydro-2H-indol-2-one]",≤ 10000
7,"Cc1nn(C2CCCC2)cc1S(=O)(=O)N1CC(Nc2ccc(F)c(F)c2)C(c2ccccc2)C1 (stereo not drawn) [Example 479, 1-[(1-cyclopentyl-3-methyl-1H-pyrazol-4-yl)sulfonyl]-N-(3,4-difluorophenyl)-4-phenylpyrrolidin-3-amine]",> 10000
8,"Cc1ncc(S(=O)(=O)N2C[C@H](Nc3ccc(F)c(F)c3)[C@@H](c3ccc(F)cc3)C2)n1C [Example 757, (3R,4S)—N-(3,4-difluorophenyl)-1-[(1,2-dimethyl-1H-imidazol-5-yl)sulfonyl]-4-(4-fluorophenyl)pyrrolidin-3-amine]",≤ 10000
9,"Cn1cnc(S(=O)(=O)N2C[C@H](Nc3cccc(C#N)c3)[C@@H](c3ccc(F)cc3)C2)c1 [Example 380, 3-({(3R,4S)-4-(4-fluorophenyl)-1-[(1-methyl-1H-imidazol-4-yl)sulfonyl]pyrrolidin-3-yl}-amino)benzonitrile]",≤ 100
10,"Cn1cnc(S(=O)(=O)N2C[C@@H](Nc3cccc(C#N)c3)[C@H](c3ccc(F)cc3)C2)c1 [Example 389, 3-({(3S,4R)-4-(4-fluorophenyl)-1-[(1-methyl-1H-imidazol-4-yl)sulfonyl]pyrrolidin-3-yl}amino)benzonitrile]",≤ 10000
11,"CC(C)Oc1cc(N[C@H]2CN(S(=O)(=O)c3cn(C)cn3)C[C@@H]2c2ccc(F)cc2)ncn1 [Example 716, N-{(3R,4S)-4-(4-fluorophenyl)-1-[(1-methyl-1H-imidazol-4-yl)sulfonyl]pyrrolidin-3-yl}-6-(propan-2-yloxy)pyrimidin-4-amine]",≤ 100
12,"Cn1cnc(S(=O)(=O)N2C[C@H](Nc3cnc(C4CCC4)cn3)[C@@H](c3ccccc3)C2)c1 [Example 411, 5-cyclobutyl-N-{(3R,4S)-1-[(1-methyl-1H-imidazol-4-yl)sulfonyl]-4-phenylpyrrolidin-3-yl}pyrazin-2-amine]",≤ 10000
13,"Cn1cc(S(=O)(=O)N2C[C@H](Nc3cccc(Cl)c3)[C@@H](c3ccc(F)cc3)C2)nn1 [Example 841, (3R,4S)—N-(3-chlorophenyl)-4-(4-fluorophenyl)-1-[(1-methyl-1H-1,2,3-triazol-4-yl)sulfonyl]pyrrolidin-3-amine]",≤ 10
14,"Cn1cnc(S(=O)(=O)N2C[C@H](Nc3ccc(F)c(-c4cccnc4)c3)[C@@H](c3ccc(F)cc3)C2)c1 [Example 745, (3R,4S)-4-(4-fluorophenyl)-N-[4-fluoro-3-(pyridin-3-yl)phenyl]-1-[(1-methyl-1H-imidazol-4-yl)sulfonyl]pyrrolidin-3-amine]",≤ 10
15,"Cn1cnc(S(=O)(=O)N2C[C@@H](c3ccccc3)[C@](C)(NCc3ccc(Cl)cc3)C2)c1 (relative stereo) [Example 354, Trans-N-(4-chlorobenzyl)-3-methyl-1-[(1-methyl-1H-imidazol-4-yl)sulfonyl]-4-phenylpyrrolidin-3-amine]",≤ 1000

# Source: US9656955B2, “Pyrrolidine derivatives, pharmaceutical compositions containing them, and their use in therapy” (AbbVie Deutschland GmbH & Co. KG, priority 2013, dated 2017)
